The values below come from ChEMBL document CHEMBL1136755, “Mapping property distributions of molecular surfaces: algorithm and evaluation of a novel 3D quantitative structure-activity relationship technique” (J Med Chem, 2003).

Assay [1] deals with T1, Corticosteroid-binding globulin (Homo sapiens) (UniProt P08185).
T1 sequence (whole entry): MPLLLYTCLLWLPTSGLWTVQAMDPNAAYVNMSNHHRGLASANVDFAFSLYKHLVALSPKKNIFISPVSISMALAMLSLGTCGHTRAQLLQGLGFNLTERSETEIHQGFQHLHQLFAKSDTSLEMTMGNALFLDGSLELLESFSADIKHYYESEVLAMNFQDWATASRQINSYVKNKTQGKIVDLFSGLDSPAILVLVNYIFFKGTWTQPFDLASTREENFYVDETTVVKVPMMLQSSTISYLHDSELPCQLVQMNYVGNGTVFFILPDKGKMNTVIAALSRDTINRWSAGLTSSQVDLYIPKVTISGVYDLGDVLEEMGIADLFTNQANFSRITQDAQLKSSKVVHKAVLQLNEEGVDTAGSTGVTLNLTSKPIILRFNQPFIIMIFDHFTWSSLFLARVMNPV
Description: Binding affinity towards corticosteroid binding globulin (CBG)

For assay [2], the target named is T2, Muscarinic acetylcholine receptor M2 (Sus scrofa, UniProt P06199).
T2 sequence (P06199 whole entry): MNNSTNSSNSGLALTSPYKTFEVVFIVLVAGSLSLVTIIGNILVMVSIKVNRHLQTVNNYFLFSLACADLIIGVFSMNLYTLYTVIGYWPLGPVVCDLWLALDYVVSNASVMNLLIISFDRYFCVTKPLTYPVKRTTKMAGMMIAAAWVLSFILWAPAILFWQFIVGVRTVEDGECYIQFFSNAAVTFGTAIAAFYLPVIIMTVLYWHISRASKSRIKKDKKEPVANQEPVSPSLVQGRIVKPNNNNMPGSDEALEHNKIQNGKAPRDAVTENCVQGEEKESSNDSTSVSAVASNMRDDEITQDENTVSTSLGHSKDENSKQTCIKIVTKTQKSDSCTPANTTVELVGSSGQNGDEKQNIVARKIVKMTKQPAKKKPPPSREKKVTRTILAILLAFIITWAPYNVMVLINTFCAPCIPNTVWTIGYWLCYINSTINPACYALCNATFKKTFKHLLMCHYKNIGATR
Put plainly: Ability to dissociate radioligand [3H]NMS from muscarinic acetylcholine receptor M2 of porcine heart.

Regarding `C[C@]12CCC(=O)C=C1CC[C@@H]1[C@@H]2[C@@H](O)C[C@]2(C=O)[C@@H](C(=O)CO)CC[C@@H]12`, the Log K in assay [1] came to 6.28.

As a reminder, the EC50 is the concentration needed to bring the measured effect to its halfway point. High values mean a need for much substance, low ones an effect from little substance. In the case of `C[N+](C)(CCCCCC[N+](C)(C)CCCN1C(=O)CC2c3ccccc3C(C1=O)c1ccccc12)CCCN1C(=O)c2ccccc2C1=O`, the 50% effective concentration (EC50) in assay [2] is 398 nM.

In assay [2], `C[N+](C)(CCCCCCC[N+](C)(C)CCCN1C(=O)[C@H]2CC=CC[C@H]2C1=O)CCCN1C(=O)[C@H]2CC=CC[C@H]2C1=O` had an EC50 of 2200 nM.

As to `N#CCCN(CCCCCCN(CCC#N)CCCN1C(=O)c2ccccc2C1=O)CCCN1C(=O)c2ccccc2C1=O`, the EC50 in assay [2] is 740 nM.
